Experimental data taken from the supplement of paper PMC10307832.

Tests used:
Assay in all cases: relative viability (nuclei count vs DMSO), 5 days (fraction); higher = more cells survive
[1] = compound: CCC1=CN=CN=C1N2CCN(CC2)CC3=NC4=C(N3)C=C(C=C4)C(F)(F)F + CC(=O)Nc1cccc(-n2c(=O)n(C3CC3)c(=O)c3c(Nc4ccc(I)cc4F)n(C)c(=O)c(C)c32)c1 [Trametinib] (partner 0.02 µM)
In short: (§1)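 Relative viability equals treated-well nuclei counts divided by vehicle-well nuclei counts. Counts came from 4× images of lung cancer cell lines grown in 1536-well plates for 5 days after pin-tool dosing on the day after seeding. Dosing used one drug alone or a fixed anchor-drug dose plus five library-drug doses (not always all listed) in √10 steps, and values are medians of duplicate plates.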

[2] = compound: CCC1=CN=CN=C1N2CCN(CC2)CC3=NC4=C(N3)C=C(C=C4)C(F)(F)F + Cc1nc(Nc2ncc(C(=O)Nc3c(C)cccc3Cl)s2)cc(N2CCN(CCO)CC2)n1 [Dasatinib] (partner 0.075 µM)
In short: as §1

[3] = compound: CCn1c(-c2nonc2N)nc2cnc(Oc3cccc(NC(=O)c4ccc(OCCN5CCOCC5)cc4)c3)cc21 + C[C@]1(O)C[C@@H](c2nc(-c3ccc4ccc(-c5ccccc5)nc4c3)c3c(N)nccn32)C1 [Linsitinib] (partner 1 µM)
In short: as §1

[4] = compound: CCC1=CN=CN=C1N2CCN(CC2)CC3=NC4=C(N3)C=C(C=C4)C(F)(F)F + COc1cccc2cc(-c3nc([C@H]4CC[C@H](C(=O)O)CC4)n4ncnc(N)c34)[nH]c12 [OSI-027] (partner 0.5 µM)
In short: as §1

Q: With UMC-11 as the cell line, how does the relative viability ([1]; first compound 0.04 µM) read?
A: 0.721

Q: And the relative viability ([1]; first compound 0.1265 µM)?
A: 0.592

Q: What about the relative viability ([1]; first compound 0.4 µM) of the same cell line?
A: 0.671

Q: And the relative viability ([1]; first compound 1.265 µM)?
A: 0.514

Q: And the relative viability ([1]; first compound 4 µM)?
A: 0.721

Q: And the relative viability ([2]; first compound 0.04 µM)?
A: 0.531

Q: What about the relative viability ([2]; first compound 0.1265 µM) of the same cell line?
A: 0.436

Q: What about the relative viability ([2]; first compound 0.4 µM) of the same cell line?
A: 0.42

Q: What about the relative viability ([2]; first compound 1.265 µM) of the same cell line?
A: 0.398

Q: And the relative viability ([2]; first compound 4 µM)?
A: 0.492

Q: And the relative viability ([3]; first compound 0.04 µM)?
A: 1.14

Q: What about the relative viability ([3]; first compound 0.1265 µM) of the same cell line?
A: 1.07

Q: And the relative viability ([3]; first compound 0.4 µM)?
A: 0.915

Q: What about the relative viability ([3]; first compound 1.265 µM) of the same cell line?
A: 0.322

Q: And the relative viability ([3]; first compound 4 µM)?
A: 0.337

Q: And the relative viability ([4]; first compound 0.04 µM)?
A: 0.464

Q: What about the relative viability ([4]; first compound 0.1265 µM) of the same cell line?
A: 0.495

Q: What about the relative viability ([4]; first compound 0.4 µM) of the same cell line?
A: 0.417

Q: And the relative viability ([4]; first compound 1.265 µM)?
A: 0.445

Q: What about the relative viability ([4]; first compound 4 µM) of the same cell line?
A: 0.406
